Measurements: patent US20230159931A1, “TARGETING THE PALMOTYLATION/DEPALMOTYLATION CYCLE TO TREAT INFLAMMATORY DISEASES” (CORNELL UNIVERSITY, priority 2020, published 2023)

Assays:
[1] = system: Bone marrow-derived macrophages (BMDM); assay: Cytokine mRNA expression during LPS priming of BMDM (qRT-PCR); format: cell-based; settings: 100 ng/mL LPS, 2-BP 10 μM or 25 μM, 6 hours
Protocol: FIGS. 12A-12D. 2-BP, a pan-DHHC inhibitor, decreases cytokines mRNA expression during the LPS priming step of inflammasome activation. Bone marrow-derived macrophages (BMDM) were treated with 100 ng/mL lipopolysaccharide (LPS), which can prime BMDM for inflammasome activation. A small molecule that inhibits all the DHHC family of palmitoyltransferases (DHHCs), 2-bromopalmitate (2-BP), was added at 10 μM or 25 μM together with LPS. The cells were cultured with LPS and 2-BP for 6 hours and then the mRNA levels of several pro-inflammatory cytokines: (A) IL-1 beta, (B) IL-6, (C) IL-12 beta, and (D) IL-18, were measured by quantitative reverse transcription PCR (qRT-PCR).
Bone marrow-derived macrophages (BMDM) were treated with 100 ng/mL lipopolysaccharide (LPS), which can prime BMDM for inflammasome activation. A small molecule that inhibits all the DHHC family of palmitoyltransferases (DHHCs), 2-bromopalmitate (2-BP), was added at 10 μM or 25 μM together with LPS. The cells were cultured with LPS and 2-BP for 6 hours and then the mRNA levels of several pro-inflammatory cytokines: IL-1 beta (FIG. 12A), IL-6 (FIG. 12B), IL-12 beta (FIG. 12C), and IL-18 (FIG. 12D), were measured by quantitative reverse transcription PCR (qRT-PCR).

[2] = system: NLRP3 inflammasome; assay: NLRP3-mediated inflammasome activation in peritoneal macrophage (secreted IL-1 beta); format: cell-based; settings: peritoneal macrophage primed with LPS 200 ng/mL 4h; 2-BP 25 μM with ATP 5 mM or Nigericin 10 μM, 1 h
Protocol: FIG. 13. 2-BP affects NLRP3-mediated inflammasome activation. Peritoneal macrophage was first primed with LPS (200 ng/mL) in DMEM medium (without serum) for 4h, and then 2-BP (25 μM) and ATP (5 mM) or Nigericin (10 μM) were added to the cell culture and incubated for 1 h. ATP and nigericin are two reagents that are commonly used to activate the NLRP3 inflammasome. The activation of NLRP3 inflammasome was then monitored by measuring the level of IL-1 beta secreted to the medium.
Peritoneal macrophage was first primed with LPS (200 ng/mL) in DMEM medium (without serum) for 4h, and then 2-BP (25 μM) and ATP (5 mM) or Nigericin (10 μM) were added to the cell culture and incubated for 1 h. ATP and nigericin are two reagents that are commonly used to activate the NLRP3 inflammasome. The activation of NLRP3 inflammasome was then monitored by measuring the level of IL-1 beta secreted to the medium (FIG. 13). The data support that inhibiting DHHCs with 2-BP can decrease NLRP3 inflammasome activation.

[3] = system: SMAD2 S-palmitoylation; assay: SMAD2 S-palmitoylation in HEK293T cells treated with APT inhibitors (Alk14, in-gel fluorescence); format: cell-based, human; settings: 10 μM APT inhibitors for 24 hours; HEK293T cells with HA-DHHC7 and Flag-SMAD2
Excerpt: FIGS. 7A-7G. APT2 is the depalmitylase of SMAD2 and C-terminal phosphorylation of SMAD2 is S-palmitoylation independent. (A) C-terminal phosphorylation (Ser465/Ser467) levels of Flag-SMAD2 (p-SMAD2(C2)) in HEK293T cells expressing HA-tagged mouse DHHC1-23. SMAD2 was pulled down with Flag beads and subjected to western blot analyses. (B) HEK293T cells were transfected with HA-tagged DHHC7 and Flag-SMAD2 WT and C41/81S mutant plasmid and treated with Alk14. The S-palmitoylation level of immunoprecipitated SMAD2 was visualized by in-gel fluorescence and the p-SMAD2(C2) level was detected by western blot analyses. […] The S-palmitoylation level of immunoprecipitated SMAD2 was visualized by in-gel fluorescence. […] The cells were labeled with Alk14 and the S-palmitoylation of SMAD2 was determined by in-gel fluorescence. […] The cells were labeled with Alk14 and the S-palmitoylation of SMAD2 was determined by in-gel fluorescence and the p-SMAD2(C2) level was detected by western blot analyses. […]
Cells were treated with 50 μM palmitic acid analogue Alkyne 14 (Alk14) for 5 h and the collected and lysed in 1% NP-40 lysis buffer (25 mM Tris-HCl pH 8.0, 150 mM NaCl, 10% glycerol, 1% Nonidet P-40) with protease inhibitor cocktail. […] The protein concentration was determined by Bradford assay (23200, Thermo Fisher). […]

For CCCCCCCCCCCCCCC(Br)C(=O)O (stereo not drawn) [2-BP, 2-bromopalmitic acid], the “IL-1 beta mRNA level” value [1] was “decrease the mRNA levels of all these cytokines in a concentration dependent manner”, the “IL-6 mRNA level” value [1] was “decrease the mRNA levels of all these cytokines in a concentration dependent manner” and the “IL-12 beta mRNA level” value [1] was “decrease the mRNA levels of all these cytokines in a concentration dependent manner”. The “IL-18 mRNA level” value [1] was “decrease the mRNA levels of all these cytokines in a concentration dependent manner” and the “NLRP3 inflammasome activation (level of IL-1 beta secreted to the medium)” value [2] was “decrease”.
CCCCCCCCCC[C@@H]1C(=O)O[C@H]1CCc1ccc(OC)c(OC)c1 [palmostatin B] was tested, and the “SMAD2 S-palmitoylation signal” value [3] was “significantly enhanced”.
